Data as given in US9012441B2, “Therapeutic compounds” (Gilead Sciences, Inc., priority 2013, dated 2015).
Where two headings read alike, the source gives them in different places.

Experiments:
HIV-IIIb = assay: Test A: Antiviral Assay in MT4 Cells; format: cell-based, HIV-1; conditions: Human immunodeficiency virus 1, MT4, 120 h, read-out: % Inh @ 2 uM (percent inhibition of virus-induced cell killing); 2 uM test compound; MT-4 cells infected with HIV-IIIb, 5 days, CellTiter-Glo
Method: (§1) Test A: Antiviral Assay in MT4 Cells For the antiviral assay, 40 μL of 1× test concentration of 3-fold serially diluted compound in culture medium with 10% FBS was added to each well of a 384-well plate (10 concentrations) in quadruplicate. MT-4 cells were next mixed with HIV-IIIb at an m.o.i of 0.003 for 1 hour, after which time 35 μL of virus/cell mixture (2000 cells) was immediately added to each well containing 40 μL of diluted compound. The plates were then incubated at 37° C. for 5 days. After 5 days of incubation, 25 μl of 2× concentrated CellTiter-Glo™ Reagent (catalog #G7571, Promega Biosciences, Inc., Madison, Wis.) was added to each well containing MT-4 cells. Cell lysis was carried out by incubating at room temperature for 10 min and then chemiluminescence was read. […] Accordingly, the compounds disclosed herein may be useful for treating an HIV virus infection, treating AIDS or for delaying the onset of AIDS or ARC symptoms.

[1] = Test B: Cytotoxicity Assay (uninfected MT-4 cells); format: cell-based; conditions: human, same protocol as Test A, read-out: MT4-CC50
Method: as §1, with “For” for “Test A: Antiviral Assay in MT4 Cells For”, “Test B: Cytotoxicity Assay Compound cytotoxicity and” for “Accordingly,”, “corresponding CC50 values were determined using” for “compounds disclosed herein may be useful for treating an HIV virus infection, treating AIDS or for delaying”, “same protocol as described in the antiviral assay (Test A) except that uninfected cells were used.” for “onset of AIDS or ARC symptoms.”

Row | SMILES | inhibition at 2 µM (HIV-IIIb) [%] | CC50 at 5 days [1] [µM] | other results
1 | COc1ccc(N(C)C(=O)[C@@H]2Cc3cccc(c3)CCCc3[nH]c4ccccc4c3CC(=O)N2)cc1 [Example 1, (4S)—N-(4-methoxyphenyl)-N-methyl-2-oxo-2,3,4,5,11,12,13,14-octahydro-1H-6,10-(metheno)azacyclopentadecino[5,4-b]indole-4-carboxamide] | 103 | > 50.3 | ring closure, yield of all isomers (from COc1ccc(N(C)C(=O)[C@@H](N)Cc2cccc(CCCc3[nH]c4ccccc4c3CC(=O)O)c2)cc1, amide bond, DPPA, DIPEA, DMF, 2.99 mM, 25.0 °C, 16.0 h): 23.9%
2 | COc1ccc(N(C)C(=O)[C@@H]2Cc3cccc(c3)CSCc3[nH]c4ccccc4c3CC(=O)N2)cc1 [Example 15, (10S)—N-(4-methoxyphenyl)-N-methyl-12-oxo-9,10,11,12,13,18-hexahydro-1H-8,4-(metheno)[1,7]thiazacyclopentadecino[3,4-b]indole-10(3H)-carboxamide] | 95.8 | > 51.4 | ring closure, yield of all isomers (from COc1ccc(N(C)C(=O)[C@@H](N)Cc2cccc(CSCc3[nH]c4ccccc4c3CC(=O)O)c2)cc1, amide bond, DPPA, DIPEA, DMF, 3.01 mM, 25.0 °C, 16.0 h): 49.1%
3 | COc1ccc(N(C)C(=O)[C@@H]2Cc3cccc(c3)CSc3[nH]c4ccccc4c3CC(=O)N2)cc1 [Example 20, (9S)—N-(4-methoxyphenyl)-N-methyl-11-oxo-8,9,10,11,12,17-hexahydro-7,3-(metheno)[1,6]thiazacyclotetradecino[2,3-b]indole-9(2H)-carboxamide] | 97.7 | 45.2 | ring closure, yield of all isomers (from COc1ccc(N(C)C(=O)[C@@H](N)Cc2cccc(CSc3[nH]c4ccccc4c3CC(=O)O)c2)cc1, amide bond, DPPA, DIPEA, DMF, 3.0 mM, 25.0 °C, 16.0 h): 65.8%
4 | COc1ccc(N(C)C(=O)[C@@H]2Cc3cccc(c3)/C=C/Cc3c(c4ccccc4n3C(=O)OC(C)(C)C)CC(=O)N2)cc1 | – | – | ring closure, yield of all isomers (from C=CCc1c(CC(=O)N[C@@H](Cc2cccc(I)c2)C(=O)N(C)c2ccc(OC)cc2)c2ccccc2n1C(=O)OC(C)(C)C, cc_pd bond, Pd2(dba)3, acetonitrile, 19.6 mM, 82.0 °C): 57.4%
5 | COc1ccc(N(C)C(=O)[C@@H]2Cc3cccc(c3)SCc3[nH]c4ccccc4c3CC(=O)N2)cc1 [Example 18, (9S)—N-(4-methoxyphenyl)-N-methyl-11-oxo-8,9,10,11,12,17-hexahydro-1H-7,3-(metheno)[1,7]thiazacyclotetradecino[3,4-b]indole-9-carboxamide] | 47.3 | > 53 | ring closure, yield of all isomers (from COc1ccc(N(C)C(=O)[C@@H](N)Cc2cccc(SCc3[nH]c4ccccc4c3CC(=O)O)c2)cc1, amide bond, DPPA, DIPEA, DMF, 3.01 mM, 25.0 °C, 16.0 h): 65.5%
6 | CN(C(=O)[C@@H]1Cc2cccc(c2)CCCc2cc(C(F)(F)F)nn2CC(=O)N1)c1ccc(Cl)cc1 [Example 32] | 72.3 | 22.5 | ring closure, yield of all isomers (from C=CCc1cc(C(F)(F)F)nn1CC(=O)N[C@@H](Cc1cccc(Br)c1)C(=O)N(C)c1ccc(Cl)cc1, cc_pd bond, Pd(OAc)2 / 2-di-tert-butylphosphino-2'-(N,N-dimethylamino)biphenyl / triethylamine, DMF, 2.81 mM, 120.0 °C, 2 steps): 15%
7 | CN(C(=O)N1Cc2cc(F)cc(c2)/C=C\Cc2c(c3ccccc3n2C(=O)OC(C)(C)C)CC(=O)N1)c1ccc(Cl)cc1 | – | – | ring closure, yield of all isomers (from C=CCc1c(CC(=O)NN(Cc2cc(F)cc(Br)c2)C(=O)N(C)c2ccc(Cl)cc2)c2ccccc2n1C(=O)OC(C)(C)C, cc_pd bond, Pd(OAc)2, acetonitrile, 3.1 mM, 110.0 °C, 1.0 h): 23.6%
8 | COc1ccc(N(C)C(=O)[C@@H]2Cc3cccc(c3)CCSCc3[nH]c4ccccc4c3CC(=O)N2)cc1 [Example 5, (11S)—N-(4-methoxyphenyl)-N-methyl-13-oxo-3,4,10,11,12,13,14,19-octahydro-1H-9,5-(metheno)[1,7]thiazacyclohexadecino[3,4-b]indole-11-carboxamide] | 33.4 | 49.5 | ring closure, yield of all isomers (from COc1ccc(N(C)C(=O)[C@@H](N)Cc2cccc(CCSCc3[nH]c4ccccc4c3CC(=O)O)c2)cc1, amide bond, DPPA, DIPEA, DMF, 2.95 mM, 25.0 °C, 16.0 h): 65.8%
9 | COC(=O)[C@@H]1Cc2cc(F)cc(c2)/C=C\Cc2c(c3ccccc3n2C(=O)OC(C)(C)C)CC(=O)N1 | – | – | ring closure, yield of all isomers (from C=CCc1c(CC(=O)N[C@@H](Cc2cc(F)cc(Br)c2)C(=O)OC)c2ccccc2n1C(=O)OC(C)(C)C, cc_pd bond, Pd(PPh3)4, acetonitrile, 4.3 mM, 82.0 °C, 6.0 h): 49.9%
